Laboratory results published in patent US20220295849A1, “Steviol Glycoside Compositions for Oral Ingestion or Use” (CARGILL, Incorporated, priority 2016, published 2022).

Columns and labels:
[1] = literature; cited from earlier work
[2] = Equilibrium solubility (80° C. for 15 minutes, cooled to room temperature, observed up to 4 days); type: physicochemical; conditions: for equilibrium solubility (soluble/insoluble): 80° C. 15 minutes, then room temperature up to 4 days; for equilibrium solubility: heated to 80° C. for 15 minutes, room temperature, at least 4 days
Text: The composition can optionally be expressed in terms of the concentration of one or more steviol glycoside(s). Beneficially, it has been founds that compound(s) SG101-104 can improve solubility of steviol glycosides in an aqueous solution, and therefore compositions can be prepared having a greater concentration of steviol glycosides in solution. […] Clear solutions without precipitates are considered soluble. Unless indicated otherwise herein, the term “solubility” refers to “equilibrium solubility.” […]

[3] = literature; cited from earlier work; remark: listed apart in the source
[4] = Instantaneous solubility in deionized water at room temperature; type: physicochemical; conditions: for instantaneous solubility: water
Text: The composition can optionally be expressed in terms of the concentration of one or more steviol glycoside(s). Beneficially, it has been founds that compound(s) SG101-104 can improve solubility of steviol glycosides in an aqueous solution, and therefore compositions can be prepared having a greater concentration of steviol glycosides in solution. […] Clear solutions without precipitates are considered soluble. Unless indicated otherwise herein, the term “solubility” refers to “equilibrium solubility.”
Instantaneous solubility is determined by mixing steviol glycoside with deionized water vigorously for 10 minutes at room temperature. […] Clear solutions without precipitates are considered soluble.

[5] = Sensory evaluation (tasting) of glycoside solutions in unsweetened black tea, Test A; type: in vivo
Method: (§1) Glycoside samples (SG101-104) were isolated and purified from fermentation broth, purified Rebs A, B, and D are of leaf origin and Reb M is chemically synthesized. All samples were dissolved in reverse osmosis water at the concentrations indicated. Unsweetened black tea was used in one set of experiments. Approximately 2-3 milliliters of each solution was tasted and sensory evaluations conducted by two individuals. In one set of experiments a third individual also tasted.

[6] = Sensory evaluation (tasting) of glycoside solutions in reverse osmosis water, Test A and Test B; type: in vivo; conditions: for summary of sensory evaluation: summary of Example 5
Method: as §1

[7] = Sucrose equivalent value (SEV) in citric acid buffer; type: in vivo; conditions: for SEV: citric acid buffer at pH=3.0; for Sucrose equivalent value / relative sweetness scale-sucrose = 1: 250 ppm in citric buffer, pH = 3.0
Text: Sweetness may be determined by measuring sucrose equivalent values (SEV) using methods and processes well known to those skilled in the art. For example, SEV may be determined by measuring sweetness equivalence to a reference sucrose solution. Typically, taste panelists are trained to detect and scale sweetness of reference sucrose solutions containing between 10 g to 150 g/kg sucrose. A sweetener composition containing one or more glycosides are then tasted at a series of dilutions to determine the concentration of the sweetener composition that is as sweet as a given sucrose reference. For example, if a sweetener composition is as sweet as 50 g/kg of sucrose solution in a citric acid buffer at pH 3.1, then the sweetener composition is assigned a SEV of 5.
For example, SEVs for SG101 and SG102 at 200 ppm are 0.6 and 1.0, respectively; SEV=1.6 for SG101 at 500 ppm and SEV=1.2 at 400 ppm; and SEV=1.5 for SG102 at 400 ppm (as measured in a citric acid buffer at pH=3.0). Thus, at ppm<500, SG101 may be employed as a sensory modifier, and at ppm<400, SG102 may be employed as a sensory modifier in a beverage.

[8] = Test A, 200 ppm in water, three experienced taste testers
[9] = SG compound alone in tea, about 200 ppm (Table 7)

## C=C1C[C@@]23CC[C@H]4[C@@](C)(CCC[C@@]4(C)C(=O)O[C@@H]4O[C@H](CO)[C@@H](O)[C@H](O)[C@H]4O)[C@@H]2CC[C@]1(O[C@@H]1O[C@H](CO)[C@@H](O)[C@H](O[C@@H]2O[C@H](CO)[C@@H](O)[C@H](O)[C@H]2O)[C@H]1O[C@@H]1O[C@H](CO)[C@@H](O)[C@H](O)[C@H]1O)C3 [Reb A, rebaudioside A]
[1]
  taste properties: has off-taste issues

## C=C1C[C@@]23CC[C@H]4[C@@](C)(CCC[C@@]4(C)C(=O)O[C@@H]4O[C@H](CO)[C@@H](O)[C@H](O)[C@H]4O[C@@H]4O[C@H](CO)[C@@H](O)[C@H](O)[C@H]4O)[C@@H]2CC[C@]1(O[C@@H]1O[C@H](CO)[C@@H](O)[C@H](O[C@@H]2O[C@H](CO)[C@@H](O)[C@H](O)[C@H]2O)[C@H]1O[C@@H]1O[C@H](CO)[C@@H](O)[C@H](O)[C@H]1O)C3 [Reb D, rebaudioside D]
[1]
  taste properties: slow onset of sweetness and was very clean
  times sweeter than sucrose: 200-220 times
[2]; 0.08%
  equilibrium solubility (soluble/insoluble): soluble
[2]; 0.10%
  equilibrium solubility (soluble/insoluble): insoluble
[2]; 0.15%
  equilibrium solubility (soluble/insoluble): insoluble
[2]; 0.20%
  equilibrium solubility (soluble/insoluble): insoluble
[2]
  equilibrium solubility: 0.08%
[3]
  aqueous solubility: low solubility in water at room temperature
[4]; 0.08% in deionized water, clear solution without precipitates = soluble
  instantaneous solubility (soluble/insoluble): insoluble
[4]; 0.10% in deionized water
  instantaneous solubility (soluble/insoluble): insoluble
[4]; 0.15% in deionized water
  instantaneous solubility (soluble/insoluble): insoluble
[4]; 0.20% in deionized water
  instantaneous solubility (soluble/insoluble): insoluble
[4]
  instantaneous solubility: < 0.08%
[4]; listed as rebaudioside D
  instantaneous solubility: less than 0.08%

## C=C1C[C@@]23CC[C@H]4[C@@](C)(CCC[C@@]4(C)C(=O)O[C@@H]4O[C@H](CO)[C@@H](O)[C@H](O[C@@H]5O[C@H](CO)[C@@H](O)[C@H](O)[C@H]5O)[C@H]4O[C@@H]4O[C@H](CO)[C@@H](O)[C@H](O)[C@H]4O)[C@@H]2CC[C@]1(O[C@@H]1O[C@H](CO)[C@@H](O)[C@H](O[C@@H]2O[C@H](CO)[C@@H](O)[C@H](O)[C@H]2O)[C@H]1O[C@@H]1O[C@H](CO)[C@@H](O)[C@H](O)[C@H]1O)C3 [Reb M, rebaudioside M]
[5]; Reb M alone in tea, concentration not stated (200.4 and 401.0 ppm prepared)
  sensory comments: Nice subtle sweetness, feels like sugar, but with long linger very good
[1]
  taste properties: has higher sweetness intensity and is more potent than other steviol glycosides
[2]; 0.10%
  equilibrium solubility (soluble/insoluble): soluble
[2]; 0.13%
  equilibrium solubility (soluble/insoluble): soluble
[2]; 0.20%
  equilibrium solubility (soluble/insoluble): soluble
[2]; 0.30%
  equilibrium solubility (soluble/insoluble): insoluble
[2]
  equilibrium solubility: at least 0.2%
[2]; listed as rebaudioside M
  equilibrium solubility: about 0.2%
[3]
  aqueous solubility: poor aqueous solubility and dissolution qualities in beverage formulations
[4]; 0.10% in deionized water
  instantaneous solubility (soluble/insoluble): soluble
[4]; 0.13% in deionized water
  instantaneous solubility (soluble/insoluble): soluble
[4]; 0.20% in deionized water
  instantaneous solubility (soluble/insoluble): insoluble
[4]; 0.30% in deionized water
  instantaneous solubility (soluble/insoluble): insoluble
[4]
  instantaneous solubility: at least 0.13%
[4]; listed as rebaudioside M
  instantaneous solubility: about 0.13%
[6]; [8]
  sensory comments: Typical mid-sweet for Reb M, fairly well rounded, quick rise, some tailing, some bitter
[6]; Test A, 400 ppm in water
  sensory comments: Higher sweet, faster onset than 200 ppm, cotton candy sweetness—skews to HFCS longer linger, sharper bitterness—but not oppressing sweetness
[6]; Test B, Reb M alone in water, concentration not stated (200-398 ppm prepared)
  sensory comments: clean, sweet, spiky sweetness

## C=C1C[C@@]23CCC4[C@](C)(C(=O)OC5OC(CO)C(O)C(O)C5OC5OC(CO)C(O)C(O)C5O)CCC[C@@]4(C)[C@@H]2CCC1(OC1OC(COC2OC(CO)C(O)C(O)C2O)C(O)C(OC2OC(CO)C(O)C(O)C2O)C1OC1OC(CO)C(O)C(O)C1O)C3 (stereo partly drawn) [SG101]
[5]; [9]
  sensory comments: Zero sweetness, seems less than in water, naked tea
[7]; 200 ppm
  SEV: 0.6
[7]; 400 ppm
  SEV: 1.2
[7]; 500 ppm
  SEV: 1.6
[6]; [8]
  sensory comments: not sweet, astringent, cloying—mouth drying on the tongue
[6]
  summary of sensory evaluation: less sweet than SG103 and SG104

## C=C1C[C@@]23CCC4[C@](C)(C(=O)OC5OC(CO)C(O)C(OC6OC(CO)C(O)C(O)C6O)C5OC5OC(CO)C(O)C(O)C5O)CCC[C@@]4(C)[C@@H]2CCC1(OC1OC(COC2OC(CO)C(O)C(O)C2O)C(O)C(OC2OC(CO)C(O)C(O)C2O)C1OC1OC(CO)C(O)C(O)C1O)C3 (stereo partly drawn) [SG102]
[5]; [9]
  sensory comments: Not sweet, slightly less astringent, some additional roundedness
[7]; 200 ppm
  SEV: 1.0
[7]; 400 ppm
  SEV: 1.5
[6]; [8]
  sensory comments: a bit sweeter than 1-1, sweetness does have quick onset
[6]
  summary of sensory evaluation: less sweet than SG103 and SG104

## C=C1C[C@@]23CCC4[C@](C)(C(=O)OC5OC(CO)C(O)C(O)C5OC5OC(CO)C(O)C(O)C5O)CCC[C@@]4(C)[C@@H]2CCC1(OC1OC(CO)C(O)C(OC2OC(COC4OC(CO)C(O)C(O)C4O)C(O)C(O)C2O)C1OC1OC(CO)C(O)C(O)C1O)C3 (stereo partly drawn) [SG103]
[5]; [9]
  sensory comments: Slower onset than Reb M by itself, not as sweet as Reb M, slightly more licorice aftertaste
[7]
  Sucrose equivalent value: 4.8
  relative sweetness scale-sucrose = 1: 192X
[6]; [8]
  sensory comments: as sweet or sweeter than 200 ppm Reb M, more sucrosey, sugary quality characteristics (high fructose corn syrup (HFCS), cotton candy notes) are reminiscent of Reb M at 400 ppm but not as sweet, “fuller” feeling
[6]
  summary of sensory evaluation: good sole sweeteners

## C=C1C[C@@]23CCC4[C@](C)(C(=O)OC5OC(CO)C(O)C(OC6OC(CO)C(O)C(O)C6O)C5OC5OC(CO)C(O)C(O)C5O)CCC[C@@]4(C)[C@@H]2CCC1(OC1OC(CO)C(O)C(OC2OC(COC4OC(CO)C(O)C(O)C4O)C(O)C(O)C2O)C1OC1OC(CO)C(O)C(O)C1O)C3 (stereo partly drawn) [SG104]
[5]; [9]
  sensory comments: As sweet as Reb M, very sucrosey compared to Reb M, a little back end licorice
[7]
  Sucrose equivalent value: 6.5
  relative sweetness scale-sucrose = 1: 260X
[6]; [8]
  sensory comments: as sweet or sweeter than 200 ppm Reb M, more rounded sweetness, enhanced sugar quality effects (sensations reminiscent of sucrose, vanilla), “fuller” feeling
[6]
  summary of sensory evaluation: good sole sweeteners
